In paper PMC3169562, “The Hedgehog Receptor Patched Is Involved in Cholesterol Transport” (PLoS ONE, 2011):

Columns and labels:
human Patched (hPtc) [1] = target: T1, human Patched (hPtc) (Homo sapiens, UniProt Q13635); assay: fluorescent sterol efflux from yeast over-expressing hPtc versus Myodulin or hSmo controls; assay type: cell-based; design: gene PTCH1; hPtc-MAP over-expressed in S. cerevisiae
T1 sequence (Q13635 1-1447): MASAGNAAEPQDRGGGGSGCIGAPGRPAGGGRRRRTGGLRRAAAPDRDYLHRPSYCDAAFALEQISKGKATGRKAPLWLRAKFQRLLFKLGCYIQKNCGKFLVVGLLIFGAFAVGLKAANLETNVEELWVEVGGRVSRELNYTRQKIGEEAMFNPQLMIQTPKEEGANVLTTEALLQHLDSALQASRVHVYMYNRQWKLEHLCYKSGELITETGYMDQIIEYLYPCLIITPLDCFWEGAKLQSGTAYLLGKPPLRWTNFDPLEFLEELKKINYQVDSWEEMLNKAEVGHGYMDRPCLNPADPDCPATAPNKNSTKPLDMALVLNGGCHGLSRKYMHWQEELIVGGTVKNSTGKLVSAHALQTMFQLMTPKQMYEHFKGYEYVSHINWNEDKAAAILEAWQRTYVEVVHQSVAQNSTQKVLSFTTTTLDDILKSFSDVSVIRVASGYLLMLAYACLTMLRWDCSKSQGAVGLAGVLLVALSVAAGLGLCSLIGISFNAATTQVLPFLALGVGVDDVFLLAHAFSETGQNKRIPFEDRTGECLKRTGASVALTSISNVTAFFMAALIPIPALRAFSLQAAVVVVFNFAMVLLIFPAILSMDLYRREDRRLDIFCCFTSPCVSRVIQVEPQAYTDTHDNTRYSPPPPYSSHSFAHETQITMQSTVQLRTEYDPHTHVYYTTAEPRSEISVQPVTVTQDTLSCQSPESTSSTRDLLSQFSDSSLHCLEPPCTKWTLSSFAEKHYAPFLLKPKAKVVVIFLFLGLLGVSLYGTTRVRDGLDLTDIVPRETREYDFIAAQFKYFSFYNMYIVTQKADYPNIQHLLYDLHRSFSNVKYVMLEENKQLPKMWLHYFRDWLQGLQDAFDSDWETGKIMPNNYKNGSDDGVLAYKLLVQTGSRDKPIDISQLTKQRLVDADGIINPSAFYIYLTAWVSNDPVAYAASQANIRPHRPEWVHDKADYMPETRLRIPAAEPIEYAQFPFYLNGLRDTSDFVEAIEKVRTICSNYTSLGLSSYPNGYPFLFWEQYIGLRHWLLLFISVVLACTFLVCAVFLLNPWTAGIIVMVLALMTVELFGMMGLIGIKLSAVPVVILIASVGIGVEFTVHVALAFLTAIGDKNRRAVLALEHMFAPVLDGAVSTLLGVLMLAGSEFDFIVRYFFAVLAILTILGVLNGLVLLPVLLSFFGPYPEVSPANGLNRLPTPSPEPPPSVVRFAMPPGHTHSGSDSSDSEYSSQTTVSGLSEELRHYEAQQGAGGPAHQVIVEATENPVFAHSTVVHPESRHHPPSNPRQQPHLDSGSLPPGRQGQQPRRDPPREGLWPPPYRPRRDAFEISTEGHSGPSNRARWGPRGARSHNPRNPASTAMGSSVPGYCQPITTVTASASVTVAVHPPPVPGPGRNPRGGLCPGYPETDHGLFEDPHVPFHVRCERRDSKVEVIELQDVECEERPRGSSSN

human Patched (hPtc) [2] = target: T1, human Patched (hPtc); assay: SPR (Biacore): purified hPtc injected over thiocholesterol covalently coupled to a CM5 chip; Myodulin as negative control; assay type: binding; design: gene PTCH1

Row | % increase of efflux (human Patched (hPtc) [1]) | SMILES | SPR (Biacore): purified hPtc injected over thiocholesterol covalently coupled to (human Patched (hPtc) [2])
1 | ~ 88 % increase of efflux | CC1=CC(C)=[N+]2C1=C(CC[C@@H](C)[C@H]1CC[C@H]3[C@@H]4CC=C5C[C@@H](O)CC[C@]5(C)[C@H]4CC[C@]13C)c1c(C)cc(C)n1[B-]2(F)F [BODIPY-cholesterol] | 
2 |  | CC(C)CCC[C@@H](C)[C@H]1CC[C@H]2[C@@H]3CC=C4C[C@@H](O)CC[C@]4(C)[C@H]3CC[C@]12C [cholesterol] | showed a clear binding of hPtc to cholesterol coupled on the fc in comparison with Myo
